This is an account of results in ChEMBL document CHEMBL3407375, “Substituted pyrrolidin-2-ones: Centrally acting orexin receptor antagonists promoting sleep. Part 2” (Bioorg Med Chem Lett, 2015).

Series [1] concerns the target T1, Cytochrome P450 2D6 (Homo sapiens, UniProt P10635). Briefly: Inhibition of CYP2D6 (unknown origin). Format: ADME.
The nature of series [2]: Drug level in Wistar rat brain measured per gram of tissue at 100 mg/kg, po after 3 hrs. Details: dose 100 mg/kg, route oral; call rule not given here. Particulars: read-out: Drug uptake. Type of series: ADME, organism-based.
The test system of series [3] is Rattus norvegicus. Briefly: Induction of sleep in Wistar rat assessed as time spent in active wake at 100 mg/kg, po after 12 hrs (reference value: 44.6%). Type of series: functional.
The subject of series [4] is Rattus norvegicus. The series can be described thus: Induction of sleep in Wistar rat assessed as increase in time spent in REM sleep at 100 mg/kg, po after 12 hrs relative to control. Format: functional.
Series [5] can be described thus: Ratio of drug level in brain to plasma in Wistar rat at 100 mg/kg, po afer 3 hrs. Format: ADME, organism-based. The arrangement: dose 100 mg/kg, route oral. The conditions noted are these: read-out: BPR.
The subject of series [6] is Rattus norvegicus. The series can be described thus: Induction of sleep in Wistar rat assessed as time spent in non-REM sleep at 100 mg/kg, po after 12 hrs (reference value: 29.8%). Type of series: functional.
The subject of series [7] is Rattus norvegicus. The series can be described thus: Induction of sleep in Wistar rat assessed as time spent in REM sleep at 100 mg/kg, po after 12 hrs (reference value: 6%). Format: functional.
In series [8] the target is T2, Cytochrome P450 3A4 (Homo sapiens, UniProt P08684). The series can be described thus: Inhibition of CYP3A4 (unknown origin) using testosterone as marker substrate. Format: ADME.
T2 sequence (P08684 whole entry): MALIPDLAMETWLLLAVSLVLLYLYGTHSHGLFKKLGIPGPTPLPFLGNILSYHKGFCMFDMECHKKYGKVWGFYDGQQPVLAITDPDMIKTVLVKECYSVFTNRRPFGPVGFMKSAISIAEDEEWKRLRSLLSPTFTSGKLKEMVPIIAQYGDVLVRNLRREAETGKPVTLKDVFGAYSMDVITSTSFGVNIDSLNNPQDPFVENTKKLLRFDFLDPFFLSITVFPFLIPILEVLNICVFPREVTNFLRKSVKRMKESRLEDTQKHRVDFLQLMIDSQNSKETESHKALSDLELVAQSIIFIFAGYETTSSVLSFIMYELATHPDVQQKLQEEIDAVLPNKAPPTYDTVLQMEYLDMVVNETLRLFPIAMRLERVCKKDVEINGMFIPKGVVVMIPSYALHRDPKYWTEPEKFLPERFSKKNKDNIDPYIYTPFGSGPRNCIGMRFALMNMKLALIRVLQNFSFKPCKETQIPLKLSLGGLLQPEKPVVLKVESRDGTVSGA
Series [9] addresses T2, Cytochrome P450 3A4. Briefly: Inhibition of CYP3A4 (unknown origin). Type of series: ADME.
Series [10] deals with T2, Cytochrome P450 3A4. The series can be described thus: Time dependent inhibition of CYP3A4 (unknown origin). Type of series: ADME.
Series [11] can be described thus: Intrinsic metabolic clearance in human liver microsomes at 1 uM. Type of series: ADME. The conditions noted are these: read-out: CLH. For orientation: Microsomes from liver hold many membrane-bound enzymes, among them those of drug oxidation.
Series [12] deals with MDR1. The series can be described thus: Passive apparent permeability from basolateral to apical side in MDCK cells expressing human MDR1. Format: ADME, cell-based, Canis lupus familiaris. Particulars: dog.
The subject of series [13] is MDR1. The series can be described thus: Passive apparent permeability from apical to basolateral side in MDCK cells expressing human MDR1. Type of series: ADME, cell-based, Canis lupus familiaris. Particulars: dog.
In series [14] the test system is Rattus norvegicus. Briefly: Induction of sleep in Wistar rat assessed as decrease in time spent in active wake at 100 mg/kg, po after 12 hrs relative to control. Type of series: functional.
For series [15], the target named is T3, Cytochrome P450 2C9 (Homo sapiens, UniProt P11712). Briefly: Time dependent inhibition of CYP2C9 (unknown origin). Format: ADME.
T3 sequence (P11712 whole entry): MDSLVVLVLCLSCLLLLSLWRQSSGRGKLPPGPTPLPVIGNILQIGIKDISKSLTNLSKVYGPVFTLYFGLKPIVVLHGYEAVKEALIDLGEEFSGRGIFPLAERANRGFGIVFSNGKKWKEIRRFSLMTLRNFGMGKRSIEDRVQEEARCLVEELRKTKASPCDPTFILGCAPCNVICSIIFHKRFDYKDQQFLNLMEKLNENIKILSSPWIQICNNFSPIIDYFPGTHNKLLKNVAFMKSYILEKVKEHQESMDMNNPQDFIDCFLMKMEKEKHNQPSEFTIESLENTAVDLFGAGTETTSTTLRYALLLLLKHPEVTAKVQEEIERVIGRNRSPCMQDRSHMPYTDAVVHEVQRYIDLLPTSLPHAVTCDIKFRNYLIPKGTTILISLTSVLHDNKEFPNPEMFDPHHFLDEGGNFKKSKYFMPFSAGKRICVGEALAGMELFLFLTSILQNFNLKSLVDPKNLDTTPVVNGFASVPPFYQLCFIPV
Series [16] deals with Rattus norvegicus. Briefly: Induction of sleep in Wistar rat assessed as time spent in quiet wake at 100 mg/kg, po after 12 hrs (reference value: 19.5%). Type of series: functional.
Series [17] relates to Rattus norvegicus. The series can be described thus: Induction of sleep in Wistar rat assessed as increase in time spent in non-REM sleep at 100 mg/kg, po after 12 hrs relative to control. Format: functional.
Series [18] has as its target T1, Cytochrome P450 2D6. Briefly: Time dependent inhibition of CYP2D6 (unknown origin). Type of series: ADME.
The subject of series [19] is Rattus norvegicus. Briefly: Induction of sleep in Wistar rat assessed as decrease in home cage activity at 100 mg/kg, po after 12 hrs relative to control. Type of series: functional.
Series [20] concerns the target T3, Cytochrome P450 2C9. Briefly: Inhibition of CYP2C9 (unknown origin). Type of series: ADME.
A short description of series [21]: Intrinsic metabolic clearance in rat liver microsomes at 1 uM. Format: ADME. The conditions noted are these: read-out: CLH.
The target of series [22] is Orexin/Hypocretin receptor type 1 (Homo sapiens, UniProt O43613). Briefly: Antagonist activity at human orexin 1 receptor expressed in CHO cells assessed as inhibition of orexin-A-induced calcium mobilization by FLIPR assay. Type of series: functional, cell-based. For orientation: Calcium assays in cells follow changes in intracellular calcium, usually with a dye or a luminescent sensor.
Orexin/Hypocretin receptor type 1, sequence (O43613 whole entry, looked up): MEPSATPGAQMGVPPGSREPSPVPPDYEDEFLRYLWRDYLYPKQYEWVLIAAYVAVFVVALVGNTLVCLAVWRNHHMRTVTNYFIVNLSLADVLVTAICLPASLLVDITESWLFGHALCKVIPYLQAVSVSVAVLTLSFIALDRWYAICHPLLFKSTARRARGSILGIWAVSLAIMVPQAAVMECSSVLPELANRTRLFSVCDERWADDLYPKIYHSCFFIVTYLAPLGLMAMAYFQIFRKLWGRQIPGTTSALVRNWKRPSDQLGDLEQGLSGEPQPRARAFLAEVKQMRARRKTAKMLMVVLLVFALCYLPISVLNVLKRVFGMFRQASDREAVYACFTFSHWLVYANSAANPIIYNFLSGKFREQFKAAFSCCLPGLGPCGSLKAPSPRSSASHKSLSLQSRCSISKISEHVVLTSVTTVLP

Series [23] can be described thus: Drug level in Wistar rat plasma at 100 mg/kg, po after 3 hrs. Type of series: ADME, organism-based. Details: dose 100 mg/kg, route oral.
Series [24] can be described thus: Plasma protein binding in Wistar rat at 100 mg/kg, po after 3 hrs. Type of series: ADME, organism-based. The arrangement: dose 100 mg/kg, route oral. The conditions noted are these: read-out: PPB.
Another series has as its target Orexin receptor type 2 (Homo sapiens, UniProt O43614). The series can be described thus: Antagonist activity at human orexin 2 receptor expressed in CHO cells assessed as inhibition of orexin-A-induced calcium mobilization by FLIPR assay. Type of series: functional, cell-based.
The test system of series [25] is Rattus norvegicus. The series can be described thus: Induction of sleep in Wistar rat assessed as time spent in quiet wake at 100 mg/kg, po after 12 hrs (reference value: 32.8%). Type of series: functional.
Series [26] has as its system Rattus norvegicus. Briefly: Induction of sleep in Wistar rat assessed as time spent in non-REM sleep at 100 mg/kg, po after 12 hrs (reference value: 32.1%). Type of series: functional.
Series [27] relates to Rattus norvegicus. Briefly: Induction of sleep in Wistar rat assessed as time spent in active wake at 100 mg/kg, po after 12 hrs (reference value: 30%). Format: functional.
Series [28] deals with Rattus norvegicus. The series can be described thus: Induction of sleep in Wistar rat assessed as time spent in REM sleep at 100 mg/kg, po after 12 hrs (reference value: 4.7%). Type of series: functional.

Some results are limits rather than exact numbers.

Orexin receptor type 2, sequence (O43614 whole entry, looked up): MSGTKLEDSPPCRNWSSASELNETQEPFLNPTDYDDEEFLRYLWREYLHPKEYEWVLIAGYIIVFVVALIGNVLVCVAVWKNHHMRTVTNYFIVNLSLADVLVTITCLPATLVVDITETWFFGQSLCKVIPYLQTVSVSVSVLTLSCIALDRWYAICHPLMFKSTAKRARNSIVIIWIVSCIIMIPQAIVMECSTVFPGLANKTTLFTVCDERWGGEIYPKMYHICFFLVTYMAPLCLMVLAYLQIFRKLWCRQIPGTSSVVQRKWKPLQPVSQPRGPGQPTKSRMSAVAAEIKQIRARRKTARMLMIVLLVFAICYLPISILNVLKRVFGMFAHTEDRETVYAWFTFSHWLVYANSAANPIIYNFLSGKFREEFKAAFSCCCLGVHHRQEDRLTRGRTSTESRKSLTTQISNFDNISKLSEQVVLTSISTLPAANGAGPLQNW
T1 sequence (P10635 whole entry): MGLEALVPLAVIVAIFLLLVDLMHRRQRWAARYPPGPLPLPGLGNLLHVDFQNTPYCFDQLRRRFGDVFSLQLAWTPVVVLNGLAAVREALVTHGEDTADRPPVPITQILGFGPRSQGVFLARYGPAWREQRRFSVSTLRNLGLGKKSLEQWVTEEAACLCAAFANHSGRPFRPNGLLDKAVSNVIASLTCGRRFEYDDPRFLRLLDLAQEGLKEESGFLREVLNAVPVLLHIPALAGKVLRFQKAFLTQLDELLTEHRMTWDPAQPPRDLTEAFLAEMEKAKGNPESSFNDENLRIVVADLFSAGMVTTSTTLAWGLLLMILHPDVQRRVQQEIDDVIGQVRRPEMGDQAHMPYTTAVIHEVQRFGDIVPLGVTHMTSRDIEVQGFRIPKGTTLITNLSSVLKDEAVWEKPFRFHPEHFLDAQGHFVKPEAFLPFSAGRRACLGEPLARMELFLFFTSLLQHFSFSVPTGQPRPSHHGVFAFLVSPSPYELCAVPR

What is called IC50 is the concentration that gives 50% inhibition. As usually defined, the Papp B→A is the apparent permeability from the basolateral to the apical side of a cell layer. One may read the Papp A→B as how fast a substance crosses the layer from the apical side. By inhibition in vivo is commonly meant the change of the read-out against control, counted positive when it falls. `COc1cccc(F)c1[C@@H]1C[C@@H](O)C(=O)N1Cc1ccc2oc3ccccc3c2c1`: the half-inhibitory concentration (IC50) was 47 µM at Cytochrome P450 2D6 [1], above 50 µM on Cytochrome P450 3A4 [8], above 50 µM against Cytochrome P450 3A4 [9] and 9.4 µM at Cytochrome P450 2C9 [20]. Further, the concentration at 3 h in series [2] came to 585 ng/g. The Activity in the series on Rattus norvegicus [3] was 39.2%; with Rattus norvegicus [4], 38%; with Rattus norvegicus [6], 34.4%; in the series on Rattus norvegicus [7], 7.1%; in the series with Rattus norvegicus [16] it was 19.2%; in the series on Rattus norvegicus [17], 20%. For the same compound, the Kp at 3 h in [5] was found to be 2.3. Further, the TDI entry at Cytochrome P450 3A4 [10], at Cytochrome P450 2C9 [15] and on Cytochrome P450 2D6 [18] was “Not Active” each time. The microsomal CLint at 1 µM in series [11] was 102 µL/min/mg; in [21] it was above 1250 µL/min/mg. Besides, in the series on MDR1 [12], the apparent permeability from basolateral to apical (Papp B→A) came to 26.6 ×10⁻⁶ cm/s. The Papp A→B in the series on MDR1 [13] came to 12.5 ×10⁻⁶ cm/s. Also, the inhibition in vivo at 100 mg/kg was found to be 20% in the series with Rattus norvegicus [14] and 35% in the series with Rattus norvegicus [19].
Compound `COc1cccc(F)c1C1C[C@@H](O)C(=O)N1Cc1ccc2oc3ccccc3c2c1` (mixture of isomers) returned an IC50 against Cytochrome P450 3A4 [8] of 46 µM. Further, the microsomal CLint at 1 µM in series [11] is 96 µL/min/mg.
On Cytochrome P450 3A4 [8], `COc1cccc(OC)c1[C@@H]1C[C@H](C)C(=O)N1Cc1ccc(OC(F)(F)F)cc1` (racemic) returned an IC50 of 8.7 µM.
Consider `COc1cccc(OC)c1[C@@H]1C[C@@H](C)C(=O)N1Cc1ccc(OC(F)(F)F)cc1` (racemic), for which the microsomal CLint at 1 µM in series [11] amounted to 257 µL/min/mg.
On to `CC[C@H]1C[C@@H](c2c(OC)cccc2OC)N(Cc2ccc(OC(F)(F)F)cc2)C1=O` (racemic), for which the half-inhibitory concentration (IC50) in [22] is 3.61 µM.
As for `COc1cccc(OC)c1[C@@H]1C[C@H](Cl)C(=O)N1Cc1ccc(OC(F)(F)F)cc1` (racemic), the 50% inhibitory concentration (IC50) at Cytochrome P450 3A4 [8] stood at 6.6 µM; in [22] it was 0.041 µM. Further, the microsomal CLint at 1 µM in series [11] was found to be 277 µL/min/mg.
For `COc1cccc(OC)c1[C@@H]1C[C@@H](Cl)C(=O)N1Cc1ccc(OC(F)(F)F)cc1` (racemic), the IC50 in series [22] amounted to 0.563 µM.
Take `COc1cccc(OC)c1[C@@H]1C[C@H](F)C(=O)N1Cc1ccc(OC(F)(F)F)cc1` (racemic): the concentration at 3 h in series [23] was 87 ng/mL; in series [2], 270 ng/g. Also, in series [5], the Kp at 3 h amounted to 3.1. In series [24], the fraction unbound at 3 h worked out at 0.01. For the same compound, the microsomal CLint at 1 µM in series [11] was determined as 233 µL/min/mg.
Regarding `COc1cccc(OC)c1C1CC(F)(F)C(=O)N1Cc1ccc(OC(F)(F)F)cc1` (racemic), at Cytochrome P450 3A4 [8], the IC50 is 5.2 µM. Further, the microsomal CLint at 1 µM in [11] was 232 µL/min/mg.
For `COc1cccc(OC)c1[C@@H]1C[C@@H](O)C(=O)N1Cc1ccc(OC(F)(F)F)cc1` (racemic), in that order: 25 µM and 142 µL/min/mg.
`COc1cccc(OC)c1[C@@H]1C[C@H](OC)C(=O)N1Cc1ccc(OC(F)(F)F)cc1` (racemic): the half-inhibitory concentration (IC50) was 1.4 µM against Cytochrome P450 3A4 [8] and 0.168 µM in series [22].
`CCO[C@H]1C[C@@H](c2c(OC)cccc2OC)N(Cc2ccc(OC(F)(F)F)cc2)C1=O` (racemic): the figures for the IC50 (at Orexin receptor type 2; in series [22]) were 3.96 µM and above 10 µM, respectively.
For the compound `COc1cccc(OC)c1[C@@H]1C[C@@H](OC)C(=O)N1Cc1ccc(OC(F)(F)F)cc1` (racemic), the IC50 in [22] worked out at 6.94 µM.
For `COc1cccc(OC)c1[C@@H]1C[C@H](N)C(=O)N1Cc1ccc(OC(F)(F)F)cc1` (racemic), the IC50 at Orexin receptor type 2 was determined as 7.03 µM; in series [22], 9.49 µM.
For `COc1cccc(OC)c1[C@@H]1C[C@@H](N)C(=O)N1Cc1ccc(OC(F)(F)F)cc1` (racemic), in that order: 1.98 µM and 2.05 µM.
For `CN[C@H]1C[C@@H](c2c(OC)cccc2OC)N(Cc2ccc(OC(F)(F)F)cc2)C1=O` (racemic), in that order: 5.78 µM and above 10 µM.
For `CN[C@@H]1C[C@@H](c2c(OC)cccc2OC)N(Cc2ccc(OC(F)(F)F)cc2)C1=O` (racemic), in that order: 2.4 µM and 5.81 µM.
In the case of `COc1cccc(OC)c1[C@@H]1C[C@H](N(C)C)C(=O)N1Cc1ccc(OC(F)(F)F)cc1` (racemic), the IC50 was 8.72 µM at Orexin receptor type 2 and 8.3 µM in series [22].
For `COc1cccc(OC)c1[C@@H]1C[C@@H](N(C)C)C(=O)N1Cc1ccc(OC(F)(F)F)cc1` (racemic), the IC50 is 3.62 µM on Orexin receptor type 2 and above 10 µM in [22].
`COc1cccc(OC)c1C1CCC(=O)N1Cc1ccc2oc3ccccc3c2c1` (racemic): on Cytochrome P450 3A4 [8], the IC50 worked out at 6.9 µM. Besides, the microsomal CLint at 1 µM in series [11] stood at 577 µL/min/mg.
For `COc1cccc(OC)c1[C@@H]1C[C@H](F)C(=O)N1Cc1ccc2oc3ccccc3c2c1` (racemic), in that order: 8.8 µM and 363 µL/min/mg.
Turning to `COc1cccc(OC)c1[C@@H]1C[C@H](Cl)C(=O)N1Cc1ccc2oc3ccccc3c2c1` (racemic), the IC50 in [22] is 0.005 µM.
Take `COc1cccc(OC)c1[C@@H]1C[C@@H](O)C(=O)N1Cc1ccc2oc3ccccc3c2c1` (racemic): the IC50 in [22] is 0.004 µM. The microsomal CLint at 1 µM in series [11] came to 128 µL/min/mg.
Consider `COc1cccc(F)c1[C@@H]1C[C@H](F)C(=O)N1Cc1ccc2oc3ccccc3c2c1` (racemic), for which half-maximal inhibition on Cytochrome P450 3A4 [8] (IC50) required 21 µM. In addition, in series [11], the microsomal CLint at 1 µM was determined as 349 µL/min/mg.
With `CNC(=O)[C@@H](c1ccccc1)N1CCc2cc(OC)c(OC)cc2[C@@H]1CCc1ccc(C(F)(F)F)cc1` [ALMOREXANT], the Activity with Rattus norvegicus [25] is given as 31%; with Rattus norvegicus [26], 38.5%; in the series with Rattus norvegicus [27], 24%; with Rattus norvegicus [28] it was 6.5%. In addition, the inhibition in vivo at 100 mg/kg in the series with Rattus norvegicus [19] was found to be 43%.
